Source: patent US7691842B2, “Tricyclic 6-alkylidene-penems as β-lactamase inhibitors” (Wyeth LLC, priority 2002, dated 2010)

Columns and labels:
[1] = tested on: class-A producing pathogens; details: background statement; cited from earlier work
[2] = tested on: class C producing organisms; details: background statement; cited from earlier work
[3] = biological target: class A β-lactamase TEM-1 (Escherichia coli, UniProt P62593); test: β-Lactamase inhibition, IC50 determination (nitrocefin, spectrophotometric); type: biochemical, E. Coli
Summary of the method: (§1)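 Purified enzymes TEM-1 (4.3 nM), Imi-1 (7.1 nM), CcrA (1.2 nM) and AmpC (2.1 nM) were preincubated with inhibitor 10 min at 25 °C in 50 mM PO4, pH 7.0. Nitrocefin (50 μg/ml) hydrolysis rates at 495 nm over 5 min gave % inhibition versus control; IC50 determined graphically.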

[4] = biological target: class A β-lactamase Imi-1 (Enterobacter cloacae, UniProt Q46991); test: as above; type: biochemical
class B enzyme CcrA = class B enzyme CcrA (Bacteroides fragilis, UniProt P25910); test: as above; type: biochemical; details: enzyme 1.2 nM; 10 min preincubation at 25° C.; nitrocefin 50 μg/ml; 50 mM PO4, pH 7.0; read-out: IC50 (nM) Class B Ccr
Summary of the method: as §1

class C enzyme AmpC = class C enzyme AmpC (Enterobacter cloacae, UniProt P05364); test: biochemical; set-up: species or system Enterobacter cloaca
Summary of the method: as §1

class B enzyme CcrA, sequence (P25910 19-249): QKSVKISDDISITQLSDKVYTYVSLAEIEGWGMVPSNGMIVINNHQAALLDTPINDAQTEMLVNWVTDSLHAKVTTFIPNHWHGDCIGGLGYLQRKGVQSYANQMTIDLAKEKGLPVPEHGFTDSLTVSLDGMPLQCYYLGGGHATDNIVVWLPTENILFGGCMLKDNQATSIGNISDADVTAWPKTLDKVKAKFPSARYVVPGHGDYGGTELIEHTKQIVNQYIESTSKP
class A β-lactamase Imi-1, sequence (Q46991 entry or part of it): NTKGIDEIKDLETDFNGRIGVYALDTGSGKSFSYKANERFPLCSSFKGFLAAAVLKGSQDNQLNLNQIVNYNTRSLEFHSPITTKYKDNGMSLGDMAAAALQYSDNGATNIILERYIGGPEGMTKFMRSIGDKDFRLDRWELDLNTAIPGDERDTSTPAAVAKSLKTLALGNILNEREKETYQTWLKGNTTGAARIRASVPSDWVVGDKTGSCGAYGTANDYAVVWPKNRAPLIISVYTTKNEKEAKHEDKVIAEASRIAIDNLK
class C enzyme AmpC, sequence (P05364 21-381): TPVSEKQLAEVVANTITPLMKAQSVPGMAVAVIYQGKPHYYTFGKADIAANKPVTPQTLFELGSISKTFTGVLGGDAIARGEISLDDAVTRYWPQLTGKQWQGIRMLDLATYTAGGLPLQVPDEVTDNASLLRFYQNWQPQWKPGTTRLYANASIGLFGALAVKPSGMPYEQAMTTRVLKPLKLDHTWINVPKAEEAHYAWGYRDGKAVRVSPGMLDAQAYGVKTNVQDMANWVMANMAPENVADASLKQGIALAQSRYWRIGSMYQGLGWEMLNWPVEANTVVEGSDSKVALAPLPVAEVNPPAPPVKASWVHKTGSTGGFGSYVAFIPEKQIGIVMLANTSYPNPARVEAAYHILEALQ
class A β-lactamase TEM-1, sequence (P62593 24-286 limits assumed): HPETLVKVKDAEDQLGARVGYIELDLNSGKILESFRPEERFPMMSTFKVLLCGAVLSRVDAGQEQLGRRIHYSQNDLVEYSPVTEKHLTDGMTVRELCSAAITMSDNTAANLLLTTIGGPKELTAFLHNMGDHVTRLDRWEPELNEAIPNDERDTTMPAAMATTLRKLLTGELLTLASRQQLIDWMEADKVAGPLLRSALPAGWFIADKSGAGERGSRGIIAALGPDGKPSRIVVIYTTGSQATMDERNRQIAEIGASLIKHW

Structure (SMILES)	effectiveness against class-A producing pathogens [1]	effectiveness against class C producing organisms [2]	IC50 [3] [nM]	IC50 [4] [nM]	IC50 (class B enzyme CcrA) [nM]	IC50 (class C enzyme AmpC) [nM]	melting point [°C]
C[C@]1(Cn2ccnn2)[C@H](C(=O)O)N2C(=O)C[C@H]2S1(=O)=O [tazobactam]	effective	ineffective					
O=C([O-])C1=CS[C@@H]2/C(=C\c3cn4c5c(c(OCCOCc6ccccc6)nc4n3)CCC5)C(=O)N12.[Na+] [Example 27, (5R,6Z)-6-(5-[2-(benzyloxy)ethoxy]-7,8-dihydro-6H-cyclopenta[e]imidazo[1,2-a]pyrimidin-2-ylmethylene)-7-oxo-4-thia-1-azabicyclo[3.2.0]hept-2-ene-2-carboxylic acid, sodium salt]			12	33	180	3	> 250
O=C([O-])C1=CS[C@@H]2/C(=C\c3ccc4nc5sccn5c4c3)C(=O)N12.[Na+] [Example 30, (5R,6Z)-7-oxo-6-([1,3]thiazolo[3,2-a]benzimidazol-6-ylmethylene)-4-thia-1-azabicyclo[3.2.0]hept-2-ene-2-carboxylic acid, sodium salt]			46	200	97	9.3	> 250
CC1(C)[C@H](C(=O)O)N2C(=O)C[C@H]2S1(=O)=O [sulbactam]	effective	ineffective					
O=C([O-])C1=CS[C@@H]2/C(=C\c3ccc4nc5n(c4c3)CCS5)C(=O)N12.[Na+] [Example 28, (5R,6Z)-6-(2,3-dihydro[1,3]thiazolo[3,2-a]benzimidazol-6-ylmethylene)-7-oxo-4-thia-1-azabicyclo[3.2.0]hept-2-ene-2-carboxylic acid, sodium salt]			3.2	90	110	5.7	> 250
O=C([O-])C1=CS[C@@H]2/C(=C\c3ccc4nc5n(c4c3)CCCS5)C(=O)N12.[Na+] [Example 29, (5R,6Z)-6-(3,4-dihydro-2H-[1,3]thiazino[3,2-a]benzimidazol-7-ylmethylene)-7-oxo-4-thia-1-azabicyclo[3.2.0]hept-2-ene-2-carboxylic acid, sodium salt]			15	300	240	18	> 250
O=C(O)[C@H]1/C(=C/CO)O[C@@H]2CC(=O)N21 [clavulanic acid]	effective	ineffective					
